Data published in US6803195B1, “Facile detection of cancer and cancer risk based on level of coordination between alleles” (Ramot At Tel-Aviv University Ltd., priority 1999, dated 2004).

Tests used:
Format in all cases: cell-based, human
[1] = system: PHA-stimulated lymphocytes of non-cancerous individuals; experiment: FISH replication assay, lymphocytes of non-cancerous individuals grown with 5-azacytidine (Example 6); conditions: for percentage of SD cells, mean value in AZA-exposed non-cancerous samples: samples 16-30, 72 hours, mean ± standard deviation
Method: (§1) Each subject donated five ml of peripheral blood. Cell cultures of PHA-stimulated lymphocytes were set up according to standard protocol (Rooney and Czepulkowsli, 1992). Briefly, 0.5 ml of peripheral blood was introduced into a 15 ml test tube containing 5ml F-10 medium supplemented with 20% fetal calf serum, 0.2% heparin, 1% penicillin/streptomycin antibiotic solution (Biological industries, Israel) and 3% phytohemagglutinin (PHA). In addition, all the 15 samples derived from the hematological patients (samples 1-15) and 15 of the 41 samples derived from non-cancerous subjects (samples 16-30) were also grown in the presence of 10^−7M 5-azacytidine (AZA; Sigman, USA) added to the other ingredients described above.
(§2) After 72 hours at 37° C., colchicine (Sigma, USA) was added to each sample (final concentration of 5×10^−7M for one hour) followed by hypotonic treatment (0.075 M KC1 at 37° C. for 15 minutes) and four washes, each with a fresh cold (−20° C.) 3:1 solution of methanol: acetic acid. The cell suspensions were stored at −20° C. until used for FISH.
(§3) Six diverse loci were tested using directly labeled commercial probes obtained from Vysis: (i) the SNRPN probe (32-190004); (ii) the TP53 probe (32-190006); (iii) the AML1 probe (LSI 21; 32-190002); (iv) the RB1 probe (LSI 13; 32-190001); (v) the α-satellite probe specific for centromere 17 (32-130017, hereafter marked as CEN17); and (vi) the satellite III probe specific for centromere 15 (32-1300015, hereafter marked as CEN15). The SNRPN probe identifies the Prader-Willi/Angelman syndrome region on 15q11-13 and is the most well characterized imprinted region in man (Ozoelik et al 1992). The TP53 probe identifies the p53 gene mapped to […] and is a tumor suppressor gene whose deletion and/or inactivation is implicated in over 50% of all human tumors (Prokocimer et al 1998). The AML1 probe recognizes a gene mapped to chromosome 21q22, which is one of the most frequently translocated genes in human blood malignancy (Look 1997). […] It is located on chromosome 13q14, and encodes the retinoblastoma protein. Both centromere specific probes (CEN17 and CEN15) identify non-coding loci implicated with chromosomal segregation and stability and are usually used for the enumeration of chromosome 17 and 15, respectively. Also the AML1 and RB1 probes, although not identifying centromeric regions, were both approved by the FDA to replace centromere specific probes for the enumeration of chromosomes 21 and 13, respectively.
(§4) A standard protocol was followed, as recommended by Ingen Laboratories (currently Insitus Biotechnologies), with few minor changes. Probes were diluted in Ingen's DenHyb solutions D001 to 400 folds (CEN17 and CEN15) and in D003 to 100 fold (AML1; RB1) or 50 fold (TP53; SNRPN) instead of the hybridization solution supplied with the probe. Five μl of the probe solution was placed on the targeted area of the sample slides and covered with a 12 mm round silanized coverslip (Ingen laboratories, USA) at 76° C. and denatured for six minutes at that temperature. The slide-filled aluminum slide tray was then transferred into an HybBox (Ingen Laboratories, USA), covered and allowed to hybridize overnight in the box.
Each of the 15 samples derived from the noncancerous subjects (samples 16-30) grown in the presence of AZA was also analyzed with each of the six probes used.
(§5) Slides were analyzed blindly on an Olympus BH2 fluorescent microscope, using a triple band-pass filter (Chroma technology). For the replication assay (Boogs and Chinault, 1997) at least 100 cells, containing two well-defined hybridization signals were scored from each sample, for each probe and for each treatment, following one-color FISH. The structure of each signal, either singlet (S), representing a non-replicated sequence, or doublet (D), disclosing a replicated sequence, was noted FIG. 1. […]

[2] = system: CAD samples (hematological malignancy patients at diagnosis); experiment: FISH replication assay, cultures of hematological malignancy patients (CAD) with chromatin modifiers (Example 10); conditions: for frequency (%) of SD cells, Mean: CAD + AZA (10^-7M), N = 20
Excerpt: Cultures were set up from 44 healthy individuals (hereafter called CON) and 20 hematological malignancy patients at diagnosis (hereafter termed CAD). For 20 of the CON samples and all of the CAD samples peripheral in addition to the setting up cultures in the regular growth medium, cultures were set up in medium containing 5-azacytidine (10^−7M; Sigma, USA; hereafter referred to as AZA) a demethylating agent. In addition, cultures from 6 CON and 10 CAD samples were set up in medium containing a deacetylating agents, either Trichostatin A (33 nM; Sigma, USA; hereafter referred to as TSA) or Sodium Butirate (1 nM; Sigma, USA; hereafter referred to as NB), two well described acetylating agents.
These samples were hybridized with two commercial probes: the AML1 probe (LSI 21, […]) and the α-satellite probe specific for centromere 17 (32-130017, hereafter marked as CEN17). The results are summarized in Table 1 giving the number of samples hybridized with each probe (N), Mean and standard deviation (stdev) as well as the p value obtained using two tailed student's t-test (Microsoft Office 98).

[3] = system: PHA-stimulated lymphocytes of patients suffering from a hematological malignancy; experiment: FISH replication assay, lymphocytes of hematological cancer patients grown with 5-azacytidine (Example 6); conditions: for percentage of SD cells following exposure to AZA, mean value: patients' samples 1-15, 72 hours, mean ± standard deviation
Method: as §1, §2, §3, §4
All samples obtained from the cancerous patients (samples 1-15) were analyzed with each of the six probes used, each in the absence as well as in the presence of AZA. Out of the non-cancerous samples grown without AZA 41 (samples 16-56) were analyzed with the AML1 and TP53 probes, 30 (samples 16-45) with the CEN17 probe and 15 (samples 16-30) with each of the other three probes (SNRPN, RB1 and CEN15).
as §5, with “FISH.” for “FISH. The structure of each signal, either singlet (S), representing a non-replicated sequence, or doublet (D), disclosing a replicated sequence, was noted FIG. 1.”

Which “percentage of SD cells, mean value in AZA-exposed non-cancerous samples” value ([1]; AML1 locus, 10^-7M AZA) does the source give for `Nc1ncn([C@@H]2O[C@H](CO)[C@@H](O)[C@H]2O)c(=O)n1` [AZA, 5-azacytidine] here?
Its value is 21.5±4.5%.

What about the “percentage of SD cells, mean value in AZA-exposed non-cancerous samples” value ([1]; CEN15 locus, 10^-7M AZA) of the same molecule?
Its value is 20.9±3.8%.

And the “percentage of SD cells, mean value in AZA-exposed non-cancerous samples” value ([1]; CEN17 locus, 10^-7M AZA)?
Its value is 20.9±5.0%.

And the “percentage of SD cells, mean value in AZA-exposed non-cancerous samples” value ([1]; RB1 locus, 10^-7M AZA)?
The value was 22.3±3.9%.

What about the “percentage of SD cells in AZA-exposed non-cancerous samples, range” value ([1]; TP53, AML1, RB1, CEN17 and CEN15, 10^-7M AZA) of the same molecule?
Its value is 12-29%.

What about the “percentage of SD cells, mean value in AZA-exposed non-cancerous samples” value ([1]; TP53 locus, 10^-7M AZA) of the same molecule?
The value was 20.4±4.4%.

What about the “combined SD frequency (mean of TP53, AML1, RB1, CEN17 and CEN15) per sample, range” value ([1]; non-cancerous samples exposed to AZA) of the same molecule?
The value was 16.7-24.6%.

What about the “frequency (%) of SD cells, Mean” value ([2]; AML1 locus) of the same molecule?
The value was “Mean = 25.3%”.

What about the “frequency (%) of SD cells, Mean” value ([2]; CEN17 locus) of the same molecule?
Its value is “Mean = 22.7%”.

What about the “replication pattern in cells derived from cancer patients” value ([2]; cultured cells with chromatin modifier) of the same molecule?
Its value is “attenuate the replication pattern presented in cells derived from cancer patients towards the normal”.

And the “percentage of SD cells following exposure to AZA, mean value” ([3]; AML1 locus, 10^-7M AZA)?
The value was 25.3±3.7%.

And the “percentage of SD cells following exposure to AZA, mean value” ([3]; CEN15 locus, 10^-7M AZA)?
Its value is 21.9±2.3%.

What about the “percentage of SD cells following exposure to AZA, mean value” ([3]; CEN17 locus, 10^-7M AZA) of the same molecule?
Its value is 22.7±3.4%.

What about the “percentage of SD cells following exposure to AZA, mean value” ([3]; RB1 locus, 10^-7M AZA) of the same molecule?
The value was 22.4±2.5%.

What about the “percentage of SD cells following exposure to AZA, range” value ([3]; TP53, AML1, RB1, CEN17 and CEN15, patients' samples, 10^-7M AZA) of the same molecule?
The value was 15-28%.

What about the “percentage of SD cells following exposure to AZA, mean value” ([3]; TP53 locus, 10^-7M AZA) of the same molecule?
Its value is 21.7±4.4%.

And the cancer-induced allele-specific replication ([3]; all five loci tested (TP53, RB1, AML1, satellited sequences of chromosomes 15 and 17), blood cells of hematological patients)?
The cancer-induced allele-specific replication was “reversed to the normal”.

And the “combined SD frequency (mean of TP53, AML1, RB1, CEN17 and CEN15) per sample, range” value ([3]; patients' samples exposed to AZA)?
The value was 19.8-26.2%.
